According to the supplement of paper PMC10307832:

Tests used:
Assay in all cases: relative viability (nuclei count vs DMSO), 5 days (fraction); higher = more cells survive
Sorafenib + Lapatinib = compound: CNC(=O)c1cc(Oc2ccc(NC(=O)Nc3ccc(Cl)c(C(F)(F)F)c3)cc2)ccn1 [Sorafenib] + CS(=O)(=O)CCNCc1ccc(-c2ccc3ncnc(Nc4ccc(OCc5cccc(F)c5)c(Cl)c4)c3c2)o1 [Lapatinib] (partner 2 µM)
How it was run: (§1)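 Each reported value is a median over duplicate plates. It expresses relative viability: treated-well nuclei count divided by vehicle-well nuclei count. Lung cancer cell lines in 1536-well plates were dosed by pin tool a day after seeding, alone with one drug or with a fixed anchor-drug dose plus five library-drug doses (not always all listed) in √10 steps, and nuclei were counted after 5 days.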

Sorafenib + Dasatinib = compound: CNC(=O)c1cc(Oc2ccc(NC(=O)Nc3ccc(Cl)c(C(F)(F)F)c3)cc2)ccn1 [Sorafenib] + Cc1nc(Nc2ncc(C(=O)Nc3c(C)cccc3Cl)s2)cc(N2CCN(CCO)CC2)n1 [Dasatinib] (partner 0.075 µM)
How it was run: as §1

Sorafenib + Decitabine = compound: CNC(=O)c1cc(Oc2ccc(NC(=O)Nc3ccc(Cl)c(C(F)(F)F)c3)cc2)ccn1 [Sorafenib] + Nc1ncn([C@H]2C[C@H](O)[C@@H](CO)O2)c(=O)n1 [Decitabine] (partner 2 µM)
How it was run: as §1

Sorafenib + Vorinostat = compound: CNC(=O)c1cc(Oc2ccc(NC(=O)Nc3ccc(Cl)c(C(F)(F)F)c3)cc2)ccn1 [Sorafenib] + O=C(CCCCCCC(=O)Nc1ccccc1)NO [Vorinostat] (partner 1 µM)
How it was run: as §1

Sorafenib + Olaparib = compound: CNC(=O)c1cc(Oc2ccc(NC(=O)Nc3ccc(Cl)c(C(F)(F)F)c3)cc2)ccn1 [Sorafenib] + O=C(c1cc(Cc2n[nH]c(=O)c3ccccc23)ccc1F)N1CCN(C(=O)C2CC2)CC1 [Olaparib] (partner 8 µM)
How it was run: as §1

| Cell Line | relative viability (Sorafenib + Lapatinib; first compound 0.08 µM) | relative viability (Sorafenib + Lapatinib; first compound 0.253 µM) | relative viability (Sorafenib + Lapatinib; first compound 2.53 µM) | relative viability (Sorafenib + Lapatinib; first compound 8 µM) | relative viability (Sorafenib + Dasatinib; first compound 0.08 µM) | relative viability (Sorafenib + Dasatinib; first compound 0.253 µM) | relative viability (Sorafenib + Dasatinib; first compound 2.53 µM) | relative viability (Sorafenib + Dasatinib; first compound 8 µM) | relative viability (Sorafenib + Decitabine; first compound 0.08 µM) | relative viability (Sorafenib + Decitabine; first compound 0.253 µM) | relative viability (Sorafenib + Decitabine; first compound 2.53 µM) | relative viability (Sorafenib + Decitabine; first compound 8 µM) | relative viability (Sorafenib + Vorinostat; first compound 0.08 µM) | relative viability (Sorafenib + Vorinostat; first compound 0.253 µM) | relative viability (Sorafenib + Vorinostat; first compound 2.53 µM) | relative viability (Sorafenib + Vorinostat; first compound 8 µM) | relative viability (Sorafenib + Olaparib; first compound 0.08 µM) | relative viability (Sorafenib + Olaparib; first compound 0.253 µM) | relative viability (Sorafenib + Olaparib; first compound 2.53 µM) | relative viability (Sorafenib + Olaparib; first compound 8 µM) |
| --- | --- | --- | --- | --- | --- | --- | --- | --- | --- | --- | --- | --- | --- | --- | --- | --- | --- | --- | --- | --- |
| HCC-827 | 0.23 | 0.191 | 0.155 | 0.237 | 0.38 | 0.435 | 0.299 | 0.327 | 0.316 | 0.3 | 0.323 | 0.331 | 0.837 | 0.572 | 0.844 | 0.667 | 0.621 | 0.623 | 0.572 | 0.464 |
| HOP-62 | 0.928 | 0.872 | 0.879 | 0.93 | 0.796 | 0.527 | 0.584 | 0.59 | 0.253 | 0.22 | 0.186 | 0.198 | 0.736 | 0.363 | 0.368 | 0.276 | 0.28 | 0.389 | 0.405 | 0.249 |
| IA-LM | 0.491 | 0.358 | 0.456 | 0.446 |  |  |  |  |  |  |  |  |  | 0.647 | 0.436 | 0.508 | 0.65 | 0.601 | 0.51 | 0.43 |
| LC-2-ad | 1.05 | 0.878 | 0.587 | 0.314 | 0.721 | 0.376 | 0.427 | 0.33 | 0.881 | 0.789 | 0.762 | 0.59 | 0.723 | 0.674 | 0.617 | 0.514 | 0.738 | 0.768 | 0.751 | 0.655 |
| LCLC-97TM1 | 0.678 | 0.707 | 0.701 | 0.603 | 0.984 | 0.841 | 0.683 | 0.676 | 0.235 | 0.224 | 0.165 | 0.252 | 0.68 | 0.674 | 0.65 | 0.576 | 0.413 | 0.324 | 0.297 | 0.253 |
| LCLC-103H |  |  |  |  | 0.617 | 0.424 | 0.44 | 0.497 | 0.701 | 0.774 | 0.771 | 0.698 | 0.813 | 0.75 | 0.778 | 0.737 | 0.796 | 0.734 | 0.831 | 0.832 |
| LK-2 | 1.22 | 0.804 | 0.906 | 0.671 | 0.259 | 0.267 | 0.341 | 0.263 | 0.329 | 0.235 | 0.236 | 0.182 | 0.371 | 0.298 | 0.143 | 0.148 | 0.674 | 0.734 | 0.575 | 0.346 |
| LOU-NH91 |  | 0.71 | 0.829 | 0.728 | 0.692 | 0.52 | 0.686 | 0.361 | 0.807 | 0.829 | 0.87 | 0.845 | 1.03 | 0.881 | 1.11 | 0.493 | 0.936 | 0.975 | 0.96 | 0.657 |
| LU99A | 1.16 | 0.998 | 0.952 | 0.895 | 0.512 | 0.504 | 0.608 | 0.351 | 0.86 | 0.91 |  | 0.606 | 0.487 | 0.445 | 0.437 | 0.192 | 0.244 | 0.234 | 0.244 | 0.237 |
